Results reported in patent US10357481B2 (MERCK SHARP & DOHME CORP., priority 2015, dated 2019).
Read-outs that look alike come from different tables or passages of the source. One block for each compound: values may come before it.

Key:
Rhesus PDE2A3 = target: T1, Rhesus PDE2A3 (Macaca mulatta, UniProt B3VTJ2); assay: PDE2 fluorescence polarization (IMAP FP) inhibition assay, rhesus PDE2A3; type: biochemical, rhesus macaque
T1 construct: made in house; host or cells: AD293 cells, transiently transfected with pcDNA3.3-TOPO; lysate supernatant used
T1 sequence (B3VTJ2 1-941): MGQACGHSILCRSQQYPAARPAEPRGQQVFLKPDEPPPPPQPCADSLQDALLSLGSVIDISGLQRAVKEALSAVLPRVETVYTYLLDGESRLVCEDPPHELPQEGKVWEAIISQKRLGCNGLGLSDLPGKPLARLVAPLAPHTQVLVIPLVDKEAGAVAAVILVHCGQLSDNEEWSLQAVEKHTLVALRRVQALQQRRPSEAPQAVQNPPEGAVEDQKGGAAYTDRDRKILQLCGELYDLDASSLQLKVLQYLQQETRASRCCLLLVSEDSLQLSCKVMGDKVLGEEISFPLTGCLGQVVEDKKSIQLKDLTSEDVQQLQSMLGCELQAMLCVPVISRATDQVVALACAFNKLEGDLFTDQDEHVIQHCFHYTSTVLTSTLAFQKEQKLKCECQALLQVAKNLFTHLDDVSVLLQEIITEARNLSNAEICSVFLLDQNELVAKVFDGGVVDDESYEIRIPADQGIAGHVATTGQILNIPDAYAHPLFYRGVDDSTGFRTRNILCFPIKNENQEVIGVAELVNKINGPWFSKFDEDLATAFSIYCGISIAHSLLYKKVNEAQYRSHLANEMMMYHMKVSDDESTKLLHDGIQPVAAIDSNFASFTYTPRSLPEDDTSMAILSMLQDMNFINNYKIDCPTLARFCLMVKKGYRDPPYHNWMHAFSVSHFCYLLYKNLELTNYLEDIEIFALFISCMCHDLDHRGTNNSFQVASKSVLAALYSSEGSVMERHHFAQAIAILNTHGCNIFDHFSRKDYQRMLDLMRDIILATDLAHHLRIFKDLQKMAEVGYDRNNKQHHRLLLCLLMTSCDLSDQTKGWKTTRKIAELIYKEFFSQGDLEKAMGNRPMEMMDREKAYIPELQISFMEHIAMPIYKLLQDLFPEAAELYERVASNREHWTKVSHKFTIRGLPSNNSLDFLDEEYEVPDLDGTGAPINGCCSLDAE
Protocol: The activity of the compounds in accordance with the present invention as PDE2 inhibitors may be readily determined using a fluorescence polarization (FP) methodology (Huang, W., et al., J. Biomol Screen, 2002, 7: 215).
In a typical experiment the PDE2 inhibitory activity of the compounds of the present invention was determined in accordance with the following experimental method. Rhesus PDE2A3 was amplified from rhesus macaque brain cDNA (Biochain Institute, Hayward, Calif.) using primers based on human PDE2A sequence (accession NM_002599.3) where the forward primer containing a Kozak consensus was 5′-[…]-3′ and the reverse primer was 5′-[…]-3′. Amplification with Easy-A High-Fidelity PCR cloning enzyme (Stratagene, La Jolla, Calif.) was 95° C. for 2 minutes followed by thirty three cycles of 95° C. for 40 seconds, 52° C. for 30 seconds, and 72° C. for 2 minutes 48 seconds. Final extension was 72° C. for 7 minutes. The PCR product was TA cloned into pcDNA3.3-TOPO (Invitrogen, Carlsbad, Calif.) aaccording to standard protocol. A consensus sequence was developed from multiple clones and then deposited into GenBank (EU812167). AD293 cells (Stratagene, La Jolla, Calif.) with 70-80% confluency were transiently transfected with rhesus PDE2A3/pcDNA3.3-TOPO using Lipofectamine 2000 according to manufacturer specifications (Invitrogen, Carlsbad, Calif.). Cells were harvested 48 hours post-transfection and lysed by sonication (setting 3, 10×5 sec pulses) in a buffer containing 20 mM HEPES pH 7.4, 1 mM EDTA and Complete Protease Inhibitor Cocktail Tablets (Roche, Indianapolis, Ind.). Lysate was collected by centrifugation at 75,000×g for 20 minutes at 4° C. and supernatant utilized for evaluation of PDE2 activity. The fluorescence polarization assay for cyclic nucleotide phosphodiesterases was performed using an IMAP® FP kit supplied by Molecular Devices, Sunnyvale, Calif. (product # R8139). […] Assays were performed at room temperature in 384-well microtiter plates with an incubation volume of 20.2 μL. Solutions of test compounds were prepared in DMSO and serially diluted with DMSO to yield 8 μL of each of 10 solutions differing by 3-fold in concentration, at 32 serial dilutions per plate. […] 0% of inhibition is determined by using DMSO (1% final concentrations).
A Labcyte Echo 555 (Labcyte, Sunnyvale, Calif.) is used to dispense 200 nL from each well of the titration plate to the 384 well assay plate. Ten microliters of a solution of enzyme (1/2000 final dilution from aliquots; sufficient to produce 20% substrate conversion) was added to the assay plate. Next 10 uL of a separate solution of the substrate FAM-labeled cAMP (50 nM final concentration product # R7506 from Molecular Devices) and the activator cGMP (1 uM final concentration), prepared in the assay buffer (10 mM Tris HCl, pH 7.2, 10 mM MgCl2, 0.05% NaN3 0.01% Tween-20, and 1 mM DTT) was added to the assay plate and shaken to mix. The reaction is allowed to proceed at room temperature for 60 minutes. A binding solution is then made from the kit components, comprised of 80% Solution A, 20% Solution B and binding reagent at a volume of 1/600 the total binding solution. The enzymatic reaction is stopped by addition of 60 μL of the binding solution to each well of the assay plates and the plates are sealed and shaken for 30 seconds. The plate was incubated at room temperature for at least one hour prior to determining the fluorescence polarization (FP). The parallel and perpendicular fluorescence of each well of the plate was measured using a Tecan Genios Pro plate reader (Tecan, Switzerland) or Perkin Elmer EnVision™ plate reader (Waltham, Mass.). Fluorescence polarization (mP) was calculated from the parallel (S) and perpendicular (P) fluorescence of each sample well and the analogous values for the median control well, containing only substrate (So and Po), using the following equation: Polarization (mP)=1000*(S/So−P/Po)/(S/So+P/Po).

human PDE2A1 = target: T2, human PDE2A1 (Homo sapiens, UniProt O00408); assay: IMAP FP PDE selectivity panel, human PDE2A1; type: biochemical
T2 construct: GST; purchased BPS Bioscience (San Diego, Calif.) 60020; host or cells: insect cells
T2 sequence (O00408 1-920 isoform O00408-2): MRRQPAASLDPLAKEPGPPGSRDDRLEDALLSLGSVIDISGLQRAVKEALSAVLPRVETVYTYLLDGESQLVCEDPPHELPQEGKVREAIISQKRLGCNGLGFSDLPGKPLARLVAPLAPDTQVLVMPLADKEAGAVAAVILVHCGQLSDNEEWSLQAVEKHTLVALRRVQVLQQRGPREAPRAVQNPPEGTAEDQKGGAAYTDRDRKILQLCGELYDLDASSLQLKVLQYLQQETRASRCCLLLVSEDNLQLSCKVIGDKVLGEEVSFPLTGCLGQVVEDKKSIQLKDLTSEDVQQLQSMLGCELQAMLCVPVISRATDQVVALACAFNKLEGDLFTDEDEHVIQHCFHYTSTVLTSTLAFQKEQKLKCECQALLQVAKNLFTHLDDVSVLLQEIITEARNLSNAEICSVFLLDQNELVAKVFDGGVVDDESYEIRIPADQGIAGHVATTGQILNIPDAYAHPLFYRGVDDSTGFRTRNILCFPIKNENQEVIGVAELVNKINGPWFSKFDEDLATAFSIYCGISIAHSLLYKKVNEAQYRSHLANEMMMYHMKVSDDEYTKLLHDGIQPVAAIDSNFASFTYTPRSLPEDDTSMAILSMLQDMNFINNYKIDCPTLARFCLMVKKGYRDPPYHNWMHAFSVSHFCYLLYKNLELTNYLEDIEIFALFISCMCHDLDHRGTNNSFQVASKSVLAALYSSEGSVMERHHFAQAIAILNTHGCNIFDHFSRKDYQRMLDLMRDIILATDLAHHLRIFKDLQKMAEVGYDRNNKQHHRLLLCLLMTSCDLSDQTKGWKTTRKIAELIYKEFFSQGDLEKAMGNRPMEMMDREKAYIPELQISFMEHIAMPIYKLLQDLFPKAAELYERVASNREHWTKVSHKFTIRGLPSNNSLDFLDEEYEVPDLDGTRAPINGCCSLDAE
In short: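 IMAP FP read-out, run at room temperature in parallel with PDE1–11: enzyme at 20% substrate conversion, 50 nM FAM-cAMP containing 1000 nM cGMP, Tris pH 7.2/MgCl2/DTT buffer. Compounds as ten 3-fold dilutions. Reaction 60 min, stopped with binding reagent for 1 h before polarization measurement.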

other PDE isoforms = details: reported in Annual Reports in Medicinal Chemistry 42: 4-5, 2007; cited from earlier work
[1] = reported in Annual Reports in Medicinal Chemistry 42: 4-5, 2007; cited from earlier work
[2] = Lab B, read-out: Rhesus PDE2 Ki (nM) Lab B
[3] = Lab A, read-out: Rhesus PDE2 Ki (nM) Lab A

- Ki (Rhesus PDE2A3; [2]): 6.8 nM
- Ki (human PDE2A1; Human PDE2 Ki (nM) Lab B): 5.4 nM
Structure (SMILES): Cc1cc(N[C@@H](c2ccc(OC(F)(F)F)c(F)c2)C(C)(C)O)n2ncnc2n1 (single isomer, unassigned) [Example 92]

- Ki (Rhesus PDE2A3; [2]): 22 nM
- Ki (human PDE2A1; Human PDE2 Ki (nM) Lab B): 21 nM
Structure (SMILES): Cc1cc(NC2(c3ccc(C(F)(F)F)c(F)c3)CC2)n2ncnc2n1 [Example 57, N-{1-[3-Fluoro-4-(trifluoromethyl)phenyl]cyclopropyl}-5-methyl [1,2,4]triazolo[1,5-a]pyrimidin-7-amine]

- Ki (Rhesus PDE2A3): 29 nM
- Ki (human PDE2A1; Lab B, read-out: Human PDE2 Ki (nM) Lab B): 35 nM
Structure (SMILES): CCc1cc(NC2(c3ccc(C(F)(F)F)c(F)c3)CC2)n2ncnc2n1 [Example 68, 5-Ethyl-N-{1-[3-fluoro-4-(trifluoromethyl)phenyl]cyclopropyl}[1,2,4]triazolo[1,5-a]pyrimidin-7-amine]

Continued, compound first:

Structure (SMILES): Cc1cc(NC(c2ccc(S(F)(F)(F)(F)F)cc2)C(C)(C)O)n2ncnc2n1 (single isomer, unassigned) [Example 117, (1R or S)-2-Methyl-1-[(5-methyl[1,2,4]triazolo[1,5-a]pyrimidin-7-yl)amino]-1-[4-(pentafluoro-λ^6-sulfanyl)phenyl] propan-2-ol]
- Ki (Rhesus PDE2A3; [2]): 5.6 nM
- Ki (human PDE2A1; Human PDE2 Ki (nM) Lab B): 4.6 nM

Structure (SMILES): COc1ccc(Cc2nn3c([C@@H](CCCc4ccccc4)[C@@H](C)O)nc(C)c3c(=O)[nH]2)cc1OC [BAY 60-7550]
- potency at other PDE isoforms (other PDE isoforms): significant potency
- brain penetration [1]: limited

Structure (SMILES): Cc1cc(NC2(c3ccc(C(F)(F)F)cc3)CC2)n2ncnc2n1 [Example 56, 5-Methyl-N-{1-[4-(trifluoromethyl)phenyl]cyclopropyl}[1,2,4]triazolo[1,5-a]pyrimidin-7-amine]
- Ki (Rhesus PDE2A3; [2]): 61 nM
- Ki (human PDE2A1; Human PDE2 Ki (nM) Lab B): 79 nM

Structure (SMILES): CC(Nc1ccnc2ncnn12)c1ccc(C(F)(F)F)cc1 (stereo not shown) [Example 83, N-{1-[4-(Trifluoromethyl)phenyl]ethyl}[1,2,4]triazolo[1,5-a]pyrimidin-7-amine]
- Ki (Rhesus PDE2A3; [3]): 4680 nM

Structure (SMILES): CC(Nc1ccnc2ncnn12)c1ccc(OC(F)(F)F)cc1 (stereo not shown) [Example 84, N-{1-[4-(Trifluoromethoxy)phenyl]ethyl}[1,2,4]triazolo[1,5-a]pyrimidin-7-amine]
- Ki (Rhesus PDE2A3; [3]): 2770 nM

Structure (SMILES): Cc1cc(N[C@@H](c2ccc(C(F)(F)F)c(F)c2)C(C)(C)O)n2ncnc2n1 [Example 98, (1S)-1-[3-Fluoro-4-(trifluoromethyl)phenyl]-2-methyl-1-[(5-methyl [1,2,4]triazolo[1,5-a]pyrimidin-7-yl)amino]propan-2-ol]
- Ki (Rhesus PDE2A3; [2]): 12 nM
- Ki (human PDE2A1; Human PDE2 Ki (nM) Lab B): 10 nM
